Columns and labels:
Assay type in all cases: in vivo
5-HT = assay: KONZETT DATA, 5-HT; settings: spasmogen 5-HT
Hist = assay: KONZETT DATA, Hist; settings: spasmogen Hist
Ach = assay: KONZETT DATA, Ach; settings: spasmogen Ach

CCCCCC(C)(O)/C=C/C1C(O)CC(=O)C1C/C=C\CCCCO (racemic) [dl-1,11,15-trihydroxymethyl-9-oxo-15-methyl-5-cis-13-trans prostadiene]
5-HT (ED50 g/kg) (5-HT): 0.0083 g/kg | Hist (ED50 g/kg) (Hist): 0.00075 g/kg | Ach (ED50 g/kg) (Ach): 0.0043 g/kg

Source: patent US4288629A, “1-Hydroxymethyl-11-deoxy-15-hydroxy-prosten-1-ol-derivatives” (American Cyanamid Company, priority 1980, dated 1981)
